Earlier results, collected in patent US20060264496A1, “Substituted indoline and indole derivatives” (priority 2003, published 2006).

How the values were obtained:
[1] = tested on: animal models of ethanol withdrawal syndrome
[2] = tested on: animal models of anxiety-like behaviour; conditions: some animal models
hippocampal kindling = conditions: rat
[3] = tested on: electrically induced seizures, seizures induced chemically by pentylenetetrazole, picrotoxin and N-methyl-D-aspartate (NMDA), DBA/2 mouse; conditions: oral and intraperitoneal administration, rats and mice
[4] = tested on: animal models of neuropathic pain
amygdala kindling model = conditions: complex partial seizures
[5] = tested on: kainic acid-induced status epilepticus; conditions: rat, following kainic acid-induced status epilepticus
[6] = tested on: K(+) current in neuronal cells
epileptic patients = conditions: clinical trials

| Structure (SMILES) | effect in ethanol withdrawal syndrome models [1] | activity in anxiety-like behaviour models [2] | progression of hippocampal kindling (hippocampal kindling) | anticonvulsant activity [3] | effect in neuropathic pain models [4] | activity in amygdala kindling model (amygdala kindling model) | limbic neurodegeneration and expression of markers of apoptosis [5] | activation of K(+) current [6] | incidence of seizures (epileptic patients) |
| --- | --- | --- | --- | --- | --- | --- | --- | --- | --- |
| NCC1(CC(=O)O)CCCCC1 [gabapentin] | very effective | – | – | – | – | – | – | – | – |
| CCOC(=O)Nc1ccc(NCc2ccc(F)cc2)cc1N [Retigabine, N-(2-amino-4-(4-fluorobenzylamino)-phenyl)carbamic acid ethyl ester] | – | active | delay the progression of hippocampal kindling | active | beneficial | active | prevent limbic neurodegeneration and the expression of markers of apoptosis | activate a K(+) current | effectiveness in reducing the incidence of seizures |
